# Results published in US10913744B2, “LRRK2 inhibitors and methods of making and using the same” (Dana-Farber Cancer Institute, Inc., priority 2015, dated 2021).
# Where two headings read alike, the source gives them in different places.
# Assays:
# [1] = biological target: GST-LRRK2(1,326-2,517) wild-type (Homo sapiens (Human), UniProt Q5S007); assay: Nictide peptide kinase assay, 100 μM ATP; format: biochemical; conditions: 20 μM Nictide
# Protocol: (§1) Assay procedures are further discussed in Section 4 herein.
# (§2) Samples were washed extensively and the incorporation of [γ-32P]ATP into Nictide was quantified by Cerenkov counting. IC50 values were calculated with GraphPad Prism using non-linear regression analysis.
# [2] = biological target: GST-LRRK2[A2016T](1326-2517) (Homo sapiens (Human), UniProt Q5S007, A2016T); assay: Nictide peptide kinase assay, 100 μM ATP; format: biochemical; conditions: 20 μM Nictide
# Protocol: as §1, §2
# [3] = biological target: GST-LRRK2[G2019S + A2016T](1,326-2,517) (Homo sapiens (Human), UniProt Q5S007, A2016T/G2019S); assay: Nictide peptide kinase assay, 100 μM ATP; format: biochemical; conditions: 20 μM Nictide
# Protocol: as §1, §2
# [4] = biological target: GST-LRRK2[G2019S](1,326-2,527) (Homo sapiens (Human), UniProt Q5S007, G2019S); assay: Nictide peptide kinase assay, 100 μM ATP; format: biochemical; conditions: 20 μM Nictide
# Protocol: as §1, §2
# BMPR2 = BMPR2 (Homo sapiens (Human), UniProt Q13873); assay: KinomeScan; format: binding; conditions: 1 uM
# DLK = DLK (Homo sapiens (Human), UniProt Q12852); assay: KinomeScan; format: binding; conditions: 1 uM
# [5] = biological target: EGFR (L747-E749del, A750P) (Homo sapiens (Human), UniProt P00533, A750P/DEL747-749); assay: KinomeScan; format: binding; conditions: 1 uM
# [6] = biological target: EGFR (L747-T751del, Sins) (Homo sapiens (Human), UniProt P00533, DEL747-751/INS746S); assay: KinomeScan; format: binding; conditions: 1 uM
# [7] = biological target: JAK2 (JH1domain-catalytic) (Homo sapiens (Human), UniProt O60674); assay: KinomeScan; format: binding; conditions: 1 uM
# MET = MET (Homo sapiens (Human), UniProt P08581); assay: KinomeScan; format: binding; conditions: 1 uM
# MKK7 = MKK7 (Homo sapiens (Human), UniProt O14733); assay: KinomeScan; format: binding; conditions: 1 uM
# MST3 = MST3 (Homo sapiens (Human), UniProt Q9Y6E0); assay: KinomeScan; format: binding; conditions: 1 uM
# PLK2 = PLK2 (Homo sapiens (Human), UniProt Q9NYY3); assay: KinomeScan; format: binding; conditions: 1 uM
# TGFBR1 = TGFBR1 (Homo sapiens (Human), UniProt P36897); assay: Dundee profiling
# TGFBR1, sequence (P36897 34-503, species assumed): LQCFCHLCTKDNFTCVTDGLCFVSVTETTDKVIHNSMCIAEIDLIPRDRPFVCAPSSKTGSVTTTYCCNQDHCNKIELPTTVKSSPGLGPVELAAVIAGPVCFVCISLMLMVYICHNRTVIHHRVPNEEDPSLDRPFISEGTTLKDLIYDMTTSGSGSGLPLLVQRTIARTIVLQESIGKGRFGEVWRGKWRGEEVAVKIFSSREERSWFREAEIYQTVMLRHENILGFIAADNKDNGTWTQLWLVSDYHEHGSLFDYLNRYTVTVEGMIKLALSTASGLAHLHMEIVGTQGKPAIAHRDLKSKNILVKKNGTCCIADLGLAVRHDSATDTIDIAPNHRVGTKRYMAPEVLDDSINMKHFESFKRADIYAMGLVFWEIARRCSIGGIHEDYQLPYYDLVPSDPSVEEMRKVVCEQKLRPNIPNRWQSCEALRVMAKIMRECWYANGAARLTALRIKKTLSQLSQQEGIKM
# PKCγ = PKCγ (Homo sapiens (Human), UniProt P05129); assay: Dundee profiling
# Src = Src (Homo sapiens (Human), UniProt P12931); assay: Dundee profiling
# Src, sequence (P12931 whole entry, looked up, species assumed): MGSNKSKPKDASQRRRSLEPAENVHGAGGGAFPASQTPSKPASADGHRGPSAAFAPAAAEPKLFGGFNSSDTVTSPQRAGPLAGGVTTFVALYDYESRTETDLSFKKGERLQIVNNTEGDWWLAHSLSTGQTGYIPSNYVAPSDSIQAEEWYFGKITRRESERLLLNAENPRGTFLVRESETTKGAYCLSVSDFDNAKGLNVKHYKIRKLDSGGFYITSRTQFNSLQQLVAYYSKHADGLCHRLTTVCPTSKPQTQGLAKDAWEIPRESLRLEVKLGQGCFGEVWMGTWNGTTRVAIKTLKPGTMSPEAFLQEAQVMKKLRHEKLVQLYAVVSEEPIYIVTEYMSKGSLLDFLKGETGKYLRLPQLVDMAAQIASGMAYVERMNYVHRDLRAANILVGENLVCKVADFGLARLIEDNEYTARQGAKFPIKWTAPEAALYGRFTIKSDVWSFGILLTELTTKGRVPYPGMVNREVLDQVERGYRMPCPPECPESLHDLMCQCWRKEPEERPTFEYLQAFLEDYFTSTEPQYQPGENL
# p38b MAPK = p38b MAPK (Homo sapiens (Human), UniProt Q15759); assay: Dundee profiling
# p38b MAPK, sequence (Q15759 whole entry): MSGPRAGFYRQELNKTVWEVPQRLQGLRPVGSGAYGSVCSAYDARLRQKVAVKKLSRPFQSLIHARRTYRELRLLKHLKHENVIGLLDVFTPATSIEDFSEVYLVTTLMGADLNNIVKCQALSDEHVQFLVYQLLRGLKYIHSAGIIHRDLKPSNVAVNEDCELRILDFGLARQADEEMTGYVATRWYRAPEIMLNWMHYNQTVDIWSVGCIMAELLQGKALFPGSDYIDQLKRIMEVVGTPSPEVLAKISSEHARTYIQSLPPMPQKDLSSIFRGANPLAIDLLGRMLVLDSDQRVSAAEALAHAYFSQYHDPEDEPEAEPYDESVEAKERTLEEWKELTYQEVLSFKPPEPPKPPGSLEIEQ
# TIE2 = TIE2 (Homo sapiens (Human), UniProt Q02763); assay: Dundee profiling
# ULK1 = ULK1 (Homo sapiens (Human), UniProt O75385); assay: Dundee profiling
# ULK1, sequence (O75385 whole entry, species assumed): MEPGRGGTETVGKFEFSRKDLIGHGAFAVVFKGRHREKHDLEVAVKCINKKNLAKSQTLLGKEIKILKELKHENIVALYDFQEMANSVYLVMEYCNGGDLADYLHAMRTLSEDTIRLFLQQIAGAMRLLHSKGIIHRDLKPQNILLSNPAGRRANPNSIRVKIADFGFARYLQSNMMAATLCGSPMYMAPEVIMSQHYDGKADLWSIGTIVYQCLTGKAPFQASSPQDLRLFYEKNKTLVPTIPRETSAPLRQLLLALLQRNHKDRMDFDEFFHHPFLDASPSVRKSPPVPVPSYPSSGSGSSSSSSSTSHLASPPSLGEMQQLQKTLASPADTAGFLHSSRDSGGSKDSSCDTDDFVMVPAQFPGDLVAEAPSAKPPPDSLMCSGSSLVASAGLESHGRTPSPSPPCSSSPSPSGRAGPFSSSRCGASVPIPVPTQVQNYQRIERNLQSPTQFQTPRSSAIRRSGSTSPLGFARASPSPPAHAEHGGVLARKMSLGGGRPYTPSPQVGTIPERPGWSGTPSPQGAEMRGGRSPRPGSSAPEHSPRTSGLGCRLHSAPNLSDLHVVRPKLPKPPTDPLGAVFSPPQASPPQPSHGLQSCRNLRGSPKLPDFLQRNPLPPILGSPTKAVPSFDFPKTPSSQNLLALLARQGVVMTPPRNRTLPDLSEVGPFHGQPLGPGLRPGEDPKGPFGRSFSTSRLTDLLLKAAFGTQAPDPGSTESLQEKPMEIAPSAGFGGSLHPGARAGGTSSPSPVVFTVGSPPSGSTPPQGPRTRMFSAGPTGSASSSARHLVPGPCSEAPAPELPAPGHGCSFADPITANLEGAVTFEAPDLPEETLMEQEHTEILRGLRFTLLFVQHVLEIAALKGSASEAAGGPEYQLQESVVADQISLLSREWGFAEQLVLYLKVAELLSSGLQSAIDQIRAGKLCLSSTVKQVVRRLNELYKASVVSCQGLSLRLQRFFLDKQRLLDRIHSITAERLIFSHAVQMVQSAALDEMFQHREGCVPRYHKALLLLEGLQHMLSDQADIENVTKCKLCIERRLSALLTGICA
# EIF2AK3 = EIF2AK3 (Homo sapiens (Human), UniProt Q9NZJ5); assay: Dundee profiling
# NEK6 = NEK6 (Homo sapiens (Human), UniProt Q9HC98); assay: Dundee profiling
# NEK6, sequence (Q9HC98 whole entry, species assumed): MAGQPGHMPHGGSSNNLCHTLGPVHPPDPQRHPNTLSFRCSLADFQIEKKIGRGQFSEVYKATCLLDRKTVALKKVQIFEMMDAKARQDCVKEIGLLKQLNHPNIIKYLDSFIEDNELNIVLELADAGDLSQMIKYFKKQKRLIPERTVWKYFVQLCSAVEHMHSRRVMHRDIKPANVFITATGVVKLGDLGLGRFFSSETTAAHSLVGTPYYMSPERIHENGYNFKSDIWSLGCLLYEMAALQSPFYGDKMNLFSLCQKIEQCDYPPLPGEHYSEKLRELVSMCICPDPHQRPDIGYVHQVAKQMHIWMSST
# ZAP70 = ZAP70 (Homo sapiens (Human), UniProt P43403); assay: Dundee profiling
# ZAP70, sequence (P43403 whole entry, species assumed): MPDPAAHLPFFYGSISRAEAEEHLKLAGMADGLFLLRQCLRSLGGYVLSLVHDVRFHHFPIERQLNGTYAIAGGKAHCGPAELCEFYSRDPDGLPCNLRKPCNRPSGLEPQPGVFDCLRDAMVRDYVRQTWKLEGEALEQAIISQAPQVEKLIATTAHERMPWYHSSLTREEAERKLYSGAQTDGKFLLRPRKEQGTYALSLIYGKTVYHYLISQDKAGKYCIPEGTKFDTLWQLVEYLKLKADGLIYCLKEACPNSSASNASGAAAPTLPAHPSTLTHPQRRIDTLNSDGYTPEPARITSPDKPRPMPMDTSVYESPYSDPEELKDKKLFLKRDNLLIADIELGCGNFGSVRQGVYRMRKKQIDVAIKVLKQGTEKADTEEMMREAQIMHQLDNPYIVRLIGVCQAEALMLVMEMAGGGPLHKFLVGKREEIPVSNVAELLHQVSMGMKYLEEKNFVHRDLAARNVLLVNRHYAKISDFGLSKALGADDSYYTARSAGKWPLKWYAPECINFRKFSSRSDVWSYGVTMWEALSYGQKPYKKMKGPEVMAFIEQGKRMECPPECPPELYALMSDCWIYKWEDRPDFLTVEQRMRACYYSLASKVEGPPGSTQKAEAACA
# CK1γ2 = CK1γ2 (Homo sapiens (Human), UniProt P78368); assay: Dundee profiling
# IKKb = IKKb (Homo sapiens (Human), UniProt O14920); assay: Dundee profiling
# IKKb, sequence (O14920 whole entry, species assumed): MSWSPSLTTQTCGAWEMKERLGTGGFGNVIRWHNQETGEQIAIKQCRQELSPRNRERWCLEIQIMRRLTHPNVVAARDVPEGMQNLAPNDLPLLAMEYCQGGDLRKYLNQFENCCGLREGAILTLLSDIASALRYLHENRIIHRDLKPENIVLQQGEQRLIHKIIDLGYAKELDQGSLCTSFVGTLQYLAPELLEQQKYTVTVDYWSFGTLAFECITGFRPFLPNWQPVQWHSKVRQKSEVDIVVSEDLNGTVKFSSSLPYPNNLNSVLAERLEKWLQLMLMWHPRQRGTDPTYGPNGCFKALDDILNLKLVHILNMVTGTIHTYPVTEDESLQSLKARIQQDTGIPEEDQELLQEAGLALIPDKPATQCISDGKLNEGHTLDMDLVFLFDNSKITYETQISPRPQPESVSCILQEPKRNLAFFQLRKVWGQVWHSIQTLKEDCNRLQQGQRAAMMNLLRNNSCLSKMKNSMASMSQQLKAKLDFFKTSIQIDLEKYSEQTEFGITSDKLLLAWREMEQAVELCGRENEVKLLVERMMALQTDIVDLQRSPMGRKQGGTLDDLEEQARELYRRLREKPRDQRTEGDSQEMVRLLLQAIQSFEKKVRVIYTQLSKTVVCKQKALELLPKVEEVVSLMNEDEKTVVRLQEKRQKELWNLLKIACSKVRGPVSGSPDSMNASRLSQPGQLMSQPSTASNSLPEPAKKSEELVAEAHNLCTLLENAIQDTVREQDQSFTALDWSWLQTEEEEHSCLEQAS
# PKA = PKA (Homo sapiens (Human), UniProt P17612); assay: Dundee profiling
# MEKK1 = MEKK1 (Homo sapiens (Human), UniProt Q13233); assay: Dundee profiling
# BRSK1 = BRSK1 (Homo sapiens (Human), UniProt Q8TDC3); assay: Dundee profiling
# BRSK1, sequence (Q8TDC3 whole entry, looked up, species assumed): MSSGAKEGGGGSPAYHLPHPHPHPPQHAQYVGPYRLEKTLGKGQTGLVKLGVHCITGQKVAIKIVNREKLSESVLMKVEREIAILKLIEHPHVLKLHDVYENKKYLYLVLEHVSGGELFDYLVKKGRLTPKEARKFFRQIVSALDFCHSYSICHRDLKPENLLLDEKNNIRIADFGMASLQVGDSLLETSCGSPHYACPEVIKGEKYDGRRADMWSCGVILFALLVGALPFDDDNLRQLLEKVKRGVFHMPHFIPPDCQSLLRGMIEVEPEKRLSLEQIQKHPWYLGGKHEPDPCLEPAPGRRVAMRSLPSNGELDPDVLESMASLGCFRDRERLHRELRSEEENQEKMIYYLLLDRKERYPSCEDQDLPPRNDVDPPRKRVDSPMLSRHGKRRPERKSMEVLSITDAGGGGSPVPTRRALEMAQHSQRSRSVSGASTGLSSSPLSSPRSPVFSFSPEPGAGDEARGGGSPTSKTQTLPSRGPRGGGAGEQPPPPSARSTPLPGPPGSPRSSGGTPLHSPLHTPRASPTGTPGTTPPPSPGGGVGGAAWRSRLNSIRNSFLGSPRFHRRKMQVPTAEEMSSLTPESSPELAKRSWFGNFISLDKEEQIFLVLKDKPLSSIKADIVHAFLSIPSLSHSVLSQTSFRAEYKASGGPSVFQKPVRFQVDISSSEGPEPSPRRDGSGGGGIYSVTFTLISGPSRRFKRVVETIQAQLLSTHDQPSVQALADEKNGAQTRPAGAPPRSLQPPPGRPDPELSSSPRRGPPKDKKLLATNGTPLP
# FGF-R1 = FGF-R1 (Homo sapiens (Human), UniProt P11362); assay: Dundee profiling
# SGK1 = SGK1 (Homo sapiens (Human), UniProt O00141); assay: Dundee profiling
# CAMK1 = CAMK1 (Homo sapiens (Human), UniProt Q14012); assay: Dundee profiling
# PKD1 = PKD1 (Homo sapiens (Human), UniProt Q15139); assay: Dundee profiling
# JNK1 = JNK1 (Homo sapiens (Human), UniProt P45983); assay: Dundee profiling
# [8] = read-out: percent remaining enzymatic activity, I1, 1 μM
# [9] = read-out: percent remaining enzymatic activity, I10
# [10] = read-out: percent remaining enzymatic activity
structure (smiles),measurement,setting,value
"CNc1nc(Nc2ccc(C(=O)N3CCOCC3)cc2OC)nc2[nH]cc(Cl)c12 [Compound 18, (4-((5-chloro-4-(methylamino)-7H-pyrrolo[2,3-d]pyrimidin-2-yl)amino)-3-methoxyphenyl)(morpholino)methanone]",IC50,[1],6.6 nM
same,IC50,[2],47.7 nM
same,IC50,[3],19.8 nM
same,IC50,[4],2.2 nM
same,KinomeScan value,BMPR2,100
same,KinomeScan value,DLK,89
same,KinomeScan value,[5],81
same,KinomeScan value,[6],84
same,KinomeScan value,[7],100
same,KinomeScan value,MET,97
same,KinomeScan value,MKK7,100
same,KinomeScan value,MST3,91
same,KinomeScan value,PLK2,100
same,remaining activity at 1 µM,TGFBR1; [8],128%
same,remaining activity at 1 µM,TGFBR1; [9],119%
same,remaining activity at 1 µM,PKCγ; [8],113%
same,remaining activity at 1 µM,PKCγ; [9],109%
same,remaining activity at 1 µM,Src; [8],110%
same,remaining activity at 1 µM,Src; [9],102%
same,remaining activity at 1 µM,p38b MAPK; [8],108%
same,remaining activity at 1 µM,p38b MAPK; [9],79%
same,remaining activity at 1 µM,TIE2; [8],104%
same,remaining activity at 1 µM,TIE2; [9],94%
same,percent remaining enzymatic activity,ULK1; I10,95%
same,remaining activity at 1 µM,ULK1; [10],103%
same,remaining activity at 1 µM,EIF2AK3; [8],102%
same,remaining activity at 1 µM,EIF2AK3; [9],79%
same,remaining activity at 1 µM,NEK6; [8],101%
same,remaining activity at 1 µM,NEK6; [9],83%
same,remaining activity at 1 µM,ZAP70; [8],101%
same,remaining activity at 1 µM,ZAP70; [9],85%
same,percent remaining enzymatic activity,CK1γ2; I10,45%
same,remaining activity at 1 µM,CK1γ2; [10],100%
same,remaining activity at 1 µM,IKKb; [8],100%
same,remaining activity at 1 µM,IKKb; [9],95%
same,remaining activity at 1 µM,PKA; [8],99%
same,remaining activity at 1 µM,PKA; [9],101%
same,remaining activity at 1 µM,MEKK1; [8],94%
same,remaining activity at 1 µM,MEKK1; [9],85%
same,remaining activity at 1 µM,BRSK1; [8],94%
same,remaining activity at 1 µM,BRSK1; [9],98%
same,remaining activity at 1 µM,FGF-R1; [8],94%
same,remaining activity at 1 µM,FGF-R1; [9],102%
same,remaining activity at 1 µM,SGK1; [8],86%
same,remaining activity at 1 µM,SGK1; [9],76%
same,remaining activity at 1 µM,CAMK1; [8],80%
same,remaining activity at 1 µM,CAMK1; [9],34%
same,remaining activity at 1 µM,PKD1; [8],47%
same,remaining activity at 1 µM,PKD1; [9],7%
same,percent remaining enzymatic activity,JNK1; I10,6%
same,remaining activity at 1 µM,JNK1; [10],38%
